Source: ChEMBL document CHEMBL1201862, “PubChem BioAssay data set” (2004)
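Dose response: 5 concentrations. Exposure: 48 h. Format: 96-well plates. Endpoint: linear interpolation; highest concentration if not reached. At the GI50, growth is halved.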 Activity calls are given as the source filed them. Cut-off read from the data, not from the text of the source: active = GI50 up to about 1.1 µM and inactive = higher.

Assays:
Assay in all cases: DTP human tumour cell line panel, 48 h
RXF 393 = tested on: RXF 393
NCI-H23 = tested on: NCI-H23
RPMI-8226 = tested on: RPMI-8226
OVCAR-5 = tested on: OVCAR-5
HOP-62 = tested on: HOP-62
HCT-15 = tested on: HCT-15
DMS-273 = tested on: DMS-273
KM-20L2 = tested on: KM-20L2
IGROV-1 = tested on: IGROV-1
HOP-18 = tested on: HOP-18
UO-31 = tested on: UO-31
DMS-114 = tested on: DMS-114
NCI-H460 = tested on: NCI-H460
COLO 205 = tested on: COLO 205
HL-60 = tested on: HL-60
SF-295 = tested on: SF-295
SNB-19 = tested on: SNB-19
OVCAR-3 = tested on: OVCAR-3
A498 = tested on: A498
HOP-92 = tested on: HOP-92
UACC-62 = tested on: UACC-62
SW-620 = tested on: SW-620
OVCAR-8 = tested on: OVCAR-8
SK-MEL-5 = tested on: SK-MEL-5
NCI-H522 = tested on: NCI-H522
UACC-257 = tested on: UACC-257
XF498 = tested on: XF498
U-251 = tested on: U-251
SK-MEL-2 = tested on: SK-MEL-2
HT-29 = tested on: HT-29
K562 = tested on: K562
KM12 = tested on: KM12
EKVX = tested on: EKVX
NCI-H226 = tested on: NCI-H226
M14 = tested on: M14
ACHN = tested on: ACHN
SN12C = tested on: SN12C
HCC 2998 = tested on: HCC 2998
SF-539 = tested on: SF-539
LOX IMVI = tested on: LOX IMVI
OVCAR-4 = tested on: OVCAR-4
TK-10 = tested on: TK-10
HCT-116 = tested on: HCT-116
SR = tested on: SR
SNB-75 = tested on: SNB-75
A549 = tested on: A549
MOLT-4 = tested on: MOLT-4
DLD-1 = tested on: DLD-1
SF-268 = tested on: SF-268
CCRF-CEM = tested on: CCRF-CEM
SK-OV-3 = tested on: SK-OV-3
SK-MEL-28 = tested on: SK-MEL-28
Malme-3M = tested on: Malme-3M
786-0 = tested on: 786-0
LXFL 529 = tested on: LXFL 529
CAKI-1 = tested on: CAKI-1
M19-MEL = tested on: M19-MEL

Compound: C#CCCCCC#CC1CCCC1C1=CC(=O)c2ccccc21 (stereo not drawn)
- GI50 (RXF 393): 4.81 µM (inactive)
- GI50 (NCI-H23): 10.6 µM (inactive)
- GI50 (RPMI-8226): 1.98 µM (inactive)
- GI50 (OVCAR-5): 11.5 µM (inactive)
- GI50 (HOP-62): 7.36 µM (inactive)
- GI50 (HCT-15): 7.24 µM
- GI50 (DMS-273): 3.49 µM (inactive)
- GI50 (KM-20L2): 10.3 µM (inactive)
- GI50 (IGROV-1): 6 µM (inactive)
- GI50 (HOP-18): 12.5 µM (inactive)
- GI50 (UO-31): 8.17 µM (inactive)
- GI50 (DMS-114): 1.48 µM (inactive)
- GI50 (NCI-H460): 15.3 µM (inactive)
- GI50 (COLO 205): 15.3 µM (inactive)
- GI50 (HL-60): 1.33 µM (inactive)
- GI50 (SF-295): 5.25 µM (inactive)
- GI50 (SNB-19): 15.5 µM (inactive)
- GI50 (OVCAR-3): 5.3 µM (inactive)
- GI50 (A498): 15 µM (inactive)
- GI50 (HOP-92): 4.09 µM (inactive)
- GI50 (UACC-62): 2.05 µM (inactive)
- GI50 (SW-620): 2.28 µM (inactive)
- GI50 (OVCAR-8): 1.66 µM (inactive)
- GI50 (SK-MEL-5): 7.67 µM (inactive)
- GI50 (NCI-H522): 7.93 µM (inactive)
- GI50 (UACC-257): 11.2 µM (inactive)
- GI50 (XF498): 8.36 µM (inactive)
- GI50 (U-251): 4.43 µM (inactive)
- GI50 (SK-MEL-2): 11.2 µM (inactive)
- GI50 (HT-29): 4.5 µM (inactive)
- GI50 (K562): 2.4 µM (inactive)
- GI50 (KM12): 6.27 µM (inactive)
- GI50 (EKVX): 14.8 µM (inactive)
- GI50 (NCI-H226): 14.5 µM (inactive)
- GI50 (M14): 5.07 µM (inactive)
- GI50 (ACHN): 6.9 µM (inactive)
- GI50 (SN12C): 6.38 µM (inactive)
- GI50 (HCC 2998): 12.6 µM (inactive)
- GI50 (SF-539): 8.93 µM (inactive)
- GI50 (LOX IMVI): 3.22 µM (inactive)
- GI50 (OVCAR-4): 10.3 µM (inactive)
- GI50 (TK-10): 20.3 µM (inactive)
- GI50 (HCT-116): 1.47 µM (inactive)
- GI50 (SR): 2.79 µM (inactive)
- GI50 (SNB-75): 5.45 µM (inactive)
- GI50 (A549): 13.5 µM (inactive)
- GI50 (MOLT-4): 2.25 µM (inactive)
- GI50 (DLD-1): 8.71 µM (inactive)
- GI50 (SF-268): 3.32 µM (inactive)
- GI50 (CCRF-CEM): 1.5 µM (inactive)
- GI50 (SK-OV-3): 15.3 µM (inactive)
- GI50 (SK-MEL-28): 5.18 µM (inactive)
- GI50 (Malme-3M): 6.55 µM (inactive)

Compound: O=c1[nH]cc(COCC(F)(F)C(F)(F)C(F)(F)C(F)F)c(=O)[nH]1
- GI50 (RXF 393): > 100 µM (inactive)
- GI50 (NCI-H23): > 100 µM (inactive)
- GI50 (RPMI-8226): > 100 µM (inactive)
- GI50 (OVCAR-5): > 100 µM (inactive)
- GI50 (HOP-62): > 100 µM (inactive)
- GI50 (HCT-15): > 100 µM
- GI50 (KM-20L2): > 100 µM (inactive)
- GI50 (IGROV-1): > 100 µM (inactive)
- GI50 (HOP-18): > 100 µM (inactive)
- GI50 (UO-31): > 100 µM (inactive)
- GI50 (DMS-114): > 100 µM (inactive)
- GI50 (786-0): > 100 µM (inactive)
- GI50 (COLO 205): > 100 µM (inactive)
- GI50 (HL-60): > 100 µM (inactive)
- GI50 (SF-295): > 100 µM (inactive)
- GI50 (SNB-19): > 100 µM (inactive)
- GI50 (OVCAR-3): > 100 µM (inactive)
- GI50 (HOP-92): > 100 µM (inactive)
- GI50 (UACC-62): > 100 µM (inactive)
- GI50 (SW-620): > 100 µM (inactive)
- GI50 (OVCAR-8): > 100 µM (inactive)
- GI50 (SK-MEL-5): > 100 µM (inactive)
- GI50 (NCI-H522): > 100 µM (inactive)
- GI50 (UACC-257): > 100 µM (inactive)
- GI50 (U-251): > 100 µM (inactive)
- GI50 (SK-MEL-2): > 100 µM (inactive)
- GI50 (HT-29): > 100 µM (inactive)
- GI50 (K562): > 100 µM (inactive)
- GI50 (KM12): > 100 µM (inactive)
- GI50 (EKVX): > 100 µM (inactive)
- GI50 (LXFL 529): > 100 µM (inactive)
- GI50 (M14): > 100 µM (inactive)
- GI50 (CAKI-1): > 100 µM (inactive)
- GI50 (ACHN): > 100 µM (inactive)
- GI50 (SN12C): > 100 µM (inactive)
- GI50 (HCC 2998): > 100 µM (inactive)
- GI50 (LOX IMVI): > 100 µM (inactive)
- GI50 (TK-10): > 100 µM (inactive)
- GI50 (HCT-116): > 100 µM (inactive)
- GI50 (SR): > 100 µM (inactive)
- GI50 (SNB-75): > 100 µM (inactive)
- GI50 (A549): > 100 µM (inactive)
- GI50 (MOLT-4): > 100 µM (inactive)
- GI50 (DLD-1): > 100 µM (inactive)
- GI50 (SF-268): > 100 µM (inactive)
- GI50 (M19-MEL): > 100 µM (inactive)
- GI50 (CCRF-CEM): > 100 µM (inactive)
- GI50 (SK-OV-3): > 100 µM (inactive)
- GI50 (SK-MEL-28): > 100 µM (inactive)
- GI50 (Malme-3M): > 100 µM (inactive)
